Data reported in patent US8163795B2, “Chroman derivatives, medicaments and use in therapy” (Marshall Edwards, Inc., priority 2004, dated 2012).
Values joined by “and” are separate entries in the source; they are usually repeats but may differ in a detail not shown here. Identical values can stand only once. Like-named read-outs stand apart in the source and are kept apart here.

Legend:
MM200 melanoma cell line = assay: HMC combination with topotecan (synergy); assay type: cell-based; conditions: for IC50: Table 11, single agent; for Change Factor (Combined): 5-day combination
Procedure: (§1) IC50 values were determined for each cell line. Cells were seeded in 96-well plates at an appropriate cell density as determined from growth kinetics analysis and cultured for 5 days in the absence and presence of the test compounds. […] IC50 values were calculated from semi-log plots of % of control proliferation on the y-axis against log dose on the x-axis.
(§2) 3-D model analysis of the cytotoxic interaction between drug A and drug B enables the representation of predicted inhibitory effect of two drugs in combination in 3 dimensions to reveal actual regions of synergy or antagonism. […] Theoretical Additivity was calculated from the cytotoxicities of drug A and drug B as monotherapies using the following formula which assumes the drugs are mutually exclusive inhibitors: […]
HMC synergy with topotecan was assessed either in combination over 5 days exposure or in sequence (HMC→topotecan) against the MM200 melanoma cell line.

[1] = system: Mel-RM melanoma cell line; assay: HMC combination with doxorubicin (synergy); assay type: cell-based; conditions: for IC50: Table 12, single agent; for Change Factor (Combined): 5-day combination
Procedure: as §1, §2
HMC synergy with doxorubicin was assessed either in combination over 5 days exposure or in sequence (HMC→doxorubicin) against the Mel-RM melanoma cell line.

[2] = Toxicity in HPAC tumour bearing mice (weight, histopathology, serum biochemistry); assay type: in vivo, Athymic nu/nu BALB/c mice
Source text: Subconfluent (80%) flasks of HPAC cells were trypsinised, washed in Hanks balanced salt solution (Sigma), resuspended in dubellco's minimal essential medium (Sigma) and an equal volume of Matrigel™ (Becton Dickson) at a density of 3.7×10^7 cells per ml. Athymic nu/nu BALB/c mice were s.c. inoculated with 3.7×10^6 HPAC cells bi-laterally midway along the dorsal surface. For the HMC (n=3 per dosage regimen) and control groups (n=2), treatment commenced five days post inoculation to allow tumour formation. HMC was formulated 20% HPBCD and delivered i.p. daily for 15 days. The control group received equivalent (weight:weight) i.p. doses of 20% HPBCD. Tumour measurements commenced on day 5 post inoculation (10×10 mm^2) and were measured in 2 dimensions, length (a) and width (b), using calipers. Tumor weight (W) was calculated by the formula W=ab2/2, where a, is the longer of the 2 measurements (Odwyer et al., 1994). Tumour proliferation curves were analyzed with respect to maximal tumour inhibition (treated/control, TIC). On sacrifice, liver, kidney, femur, stomach and colon tissue were fixed in buffered formalin, embedded in paraffin, sections cut and stained with H&E. Stained sections were then submitted to Rothwell consulting for histopathology analysis. Serum biochemistry was conducted on bloods taken from control, vehicle control and HMC treatment groups. Serum analysis was conducted by Veterinary Clinical pathology (U. Syd).
Histopathological examination of haematoxylin and eosin-stained sections cut from formalin-fixed tissues from two series of experimental mice was made. The liver, kidney, stomach and colon were examined for evidence of toxic damage, the spleen and bone marrow for evidence of myelosuppression and the tumour for degree of necrosis. A score of 0-5 was allocated to each tumour specimen for the degree of necrosis present, a 0 score representing, no necrosis and a score of 5, total necrosis. The sections were scored ‘blind’ on two separate occasions and the final score given in the results is the mean of these two scores.
Alakalines phosphatase (ALP), alanine transferase (ALT) and creatine (Cre) were assessed in HMC treated vs control animals. ALP and Cre levels were similar to control and fell within normal ranges (for rat) however, ALT levels in vehicle control and HMC treated groups were much lower than no treatment control levels.

[3] = DHE and HMC pharmacokinetics, oral, mice; assay type: in vivo, female BALB/c mice
Procedure: HMC and DHE were prepared as homogenous suspensions in 1% CMC (m:v, water). Both formulations were delivered orally by gavage to female BALB/c mice at a dosage of 50 mg/kg. Three animals were allocated to each timepoint (15 min, 30 min, 1 hr, 4 hr and 24 hr). At each respective timepoint, animals were euthanased by cervical dislocation and blood collected. Free HMC was analysed by mass spectroscopy.

[4] = 120 h, 5 days exposure, read-out: IC50, Combined (monotherapy)
[5] = 24 hr exposure, read-out: IC50, 24 hr (monotherapy)
[6] = individual HMC treated mice, 100 mg/kg, listed as HMC

With `COc1ccc(C2c3ccc(O)cc3OCC2c2ccc(O)cc2)cc1` (centres unmarked) [Compound 1, 3-(4-hydroxyphenyl)-4-(4-methoxyphenyl)chroman-7-ol] the IC50 (MM200 melanoma cell line; [4]) was 0.702 µM, the “chemosensitisation of MM200 cells to topotecan (change in IC50)” value (MM200 melanoma cell line; HMC 2 μM, HMC→topotecan sequence) was > 1000 fold and the IC50 (MM200 melanoma cell line; [5]) was 18 µM. The “Change Factor (HMC first)” value (MM200 melanoma cell line; Topotecan block, HMC 1 uM 24 hr then topotecan 24 hr) was 50.656, the “Change Factor (Combined)” value (MM200 melanoma cell line; Topotecan block, with HMC 1 uM) was “?HMC effect” and the “Change Factor (Combined)” value (MM200 melanoma cell line; Topotecan block, with HMC 2 uM) was “?HCM effect”. For the same compound, the “Change Factor (HMC first)” value (MM200 melanoma cell line; upper block of Table 11, HMC 2 uM first, sequence) was >1000, the “Change Factor (Combined)” value (MM200 melanoma cell line; upper block of Table 11, HMC 2 uM) was “?HMC effect” and the IC50 [1, 4] was 0.54 µM. The “Change Factor (HMC first)” value ([1]; HMC 1 uM 24 hr then doxorubicin 24 hr) was 1.62, the “Change Factor (HMC first)” value ([1]; HMC 2 uM 24 hr then doxorubicin 24 hr) was 12.22 and the “chemosensitisation of Mel-RM cells to camptothecin (change in IC50)” value ([1]; HMC 2 μM, sequence protocol) was ~12 fold. For the same compound, the IC50 [1, 5] was 50.5 µM, the “Change Factor (Combined)” value ([1]; doxorubicin with HMC 1 uM) was −2.06 and the “Change Factor (Combined)” value ([1]; doxorubicin with HMC 2 uM) was “?HMC effect”. For the same compound, the “toxicity as determined by weight loss” value ([2]; 100 mg/kg daily for 15 days) was “no signs of toxicity”, the “toxicity to major organs by histopathology” value ([2]; 100 mg/kg to mice) was “not toxic to major organs” and the “ALP (serum)” value [2, 6] was 111 U/L and 100 U/L and 74 U/L. For the same compound, the “ALT (serum)” value [2, 6] was 482 U/L and 494 U/L and 505 U/L, the “Cre (serum)” value [2, 6] was 8 uM (2×) and 17 uM and the “Urea (serum)” value [2, 6] was 8.11 mM and 7.79 mM and 7.27 mM. For the same compound, the concentration at 0.25 hr ([3]; female, BALB/c, mouse, plasma, po, 50 mg/kg p.o., Time 0.25, read-out: Free plasma concentration) was 380 ± 40 nM, the concentration at 0.5 hr ([3]; female, BALB/c, mouse, plasma, po, 50 mg/kg p.o., Time 0.5, read-out: Free plasma concentration) was 1300 ± 200 nM and the concentration at 1 hr ([3]; female, BALB/c, mouse, plasma, po, 50 mg/kg p.o., Time 1, read-out: Free plasma concentration) was 950 ± 400 nM. For the same compound, the concentration at 4 hr ([3]; female, BALB/c, mouse, plasma, po, 50 mg/kg p.o., Time 4, read-out: Free plasma concentration) was 190 ± 80 nM, the concentration at 24 hr ([3]; female, BALB/c, mouse, plasma, po, 50 mg/kg p.o., Time 24, read-out: Free plasma concentration) was 0 nM and the “maximum plasma concentration of the free form” value ([3]; oral 50 mg/kg) was 1.3 µM. For the same compound, the “ratio of free:total” value ([3]; oral 50 mg/kg) was 0.92 and the “time of maximum free concentration” value ([3]; oral 50 mg/kg) was 30 min.
